The values that follow come from US4638070A, “Heterocyclic amino-alcohol derivatives” (Continental Pharma, priority 1980, dated 1987).

Data set [1] in a line: Acute toxicity, oral, LD50 (Litchfield and Wilcoxon). Conditions: mouse, in vivo, fasted male mice, confidence limits p=95% in brackets. The procedure:
(1) The acute toxicity was determined on fasted male mice. The tested substances were orally administered and LD50 values (lethal dose for 50% of animals) were calculated according to the method of Litchfield and Wilcoxon (J. Pharmacol. exp. Ther. 96, 94-113, 1949). These LD50 values are given in mg/kg and also, when possible, with their confidence limits for p=95%.

The subject of data set [2] is unanaesthetized, hypertension-suffering rat. Description: Antihypertensive activity (systolic arterial pressure), oral. The data set is classed as in vivo. Conditions: 60 mg/kg, hypertensive rat, 3 hours. The gist of the method: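 Conscious hypertensive rats given compound orally at 60 mg/kg; systolic arterial pressure measured every 30 min for 2 h pre-dose and 3 h post-dose. Scored O (no fall), + (<10 mm Hg), ++ (10–20 mm Hg), +++ (>20 mm Hg).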

Data set [3] deals with guinea-pig ileum (barium chloride contractions). Description: Antispasmodic activity in vitro, contractions caused by barium chloride. Conditions: added 15 minutes before spasm-producing agent. On the procedure:
(§1) (4) The antispasmodic activity was measured in vitro, on guinea-pig ileum, the contractions of which were caused by histammne (Hist.), acetylcholine (Achol) or barium chloride (BaCl2). The tested products were added to perfusion bath 15 minutes before the spasm-producing agents.
(§2) The dose is given in micograms (μg) per ml of bath causing complete spasm inhibition.

The subject of another data set is femoral artery. Kind of data set: Vasodilator activity, femoral artery (technique of perfused paw). It counts as in vivo. On the set-up: key: O: no action; +: slight activity; ++: effect equal to half the effect of papaverine; +++: effect equal to that of papaverine; ++++: effect higher than that of papaverine. Conditions: intra-arterial, 30 mg/kg, anaesthetized dog, vs papaverine at same dose. The procedure: (3) The vasodilator activity was measured at the level of femoral artery on anaesthetized dog (technique of perfused paw). The tested substances were given intra-arterially at the rate of 30 mg/kg. Results are expressed with respect to papaverine tested at the same dose.
++: effect equal to half the effect of papaverine.
+++: effect equal to that of papaverine.
++++: effect higher than that of papaverine.

In data set [4] the test system is guinea-pig ileum (acetylcholine contractions). Kind of data set: Antispasmodic activity in vitro, contractions caused by acetylcholine. Conditions: added 15 minutes before spasm-producing agent. The procedure:
as §1, §2

Data set [5] relates to guinea-pig ileum (histamine contractions). Description: Antispasmodic activity in vitro, contractions caused by histamine. Conditions: added 15 minutes before spasm-producing agent. The procedure: as §1, §2

`CCCCCCCCNC(C)C(O)c1ccc2c(c1)CCCS2` (centres unmarked) [No 1, 1-(6-Thiochromanyl)-2-n-octylamino-1-propanol] yielded an LD50 in data set [1] of over 4000 mg/kg. In data set [2], the “ANTIHYPERTENSIVE ACTIVITY” value is given as “++ (reduction of 10 to 20 mm Hg)”. The “ANTISPASMODIC ACTIVITY BaCl2 (dose causing complete spasm inhibition)” value in data set [3] worked out at 1.7 μg per ml. Besides, in the data set on femoral artery, the “VASODILATOR ACTIVITY” value is “++++”. For the same compound, the “ANTISPASMODIC ACTIVITY ACHOL (dose causing complete spasm inhibition)” value in data set [4] was 3.3 μg per ml. In data set [5], the “ANTISPASMODIC ACTIVITY HIST. (dose causing complete spasm inhibition)” value is listed as 3.3 μg per ml.
As for `CC(NCCCCc1ccccc1)C(O)c1ccc2c(c1)CCCS2` (centres unmarked) [No 2], in data set [1], the median lethal dose (LD50) was over 4000 mg/kg. Further, in data set [2], the “ANTIHYPERTENSIVE ACTIVITY” value was “+++ (reduction higher than 20 mm Hg)”. Moreover, the “ANTISPASMODIC ACTIVITY BaCl2 (dose causing complete spasm inhibition)” value in data set [3] is reported as 16.7 μg per ml. Besides, the “VASODILATOR ACTIVITY” value in the data set with femoral artery is “++++”. Moreover, in data set [4], the “ANTISPASMODIC ACTIVITY ACHOL (dose causing complete spasm inhibition)” value worked out at 8.3 μg per ml. In addition, the “ANTISPASMODIC ACTIVITY HIST. (dose causing complete spasm inhibition)” value in data set [5] was found to be 1.7 μg per ml.
In turn, `CCCCCCCCNC(C)C(O)c1ccc2c(c1)CCS2` (centres unmarked) [No 3, 1-(2,3-dihydro-5-benzo[b]thienyl)-2-n-octylamino-1-propanol] came in with an LD50 in data set [1] of 4450 mg/kg. Further, the “ANTIHYPERTENSIVE ACTIVITY” value in data set [2] is “+++ (reduction higher than 20 mm Hg)”. Moreover, in data set [3], the “ANTISPASMODIC ACTIVITY BaCl2 (dose causing complete spasm inhibition)” value is 8.3 μg per ml. Besides, the “VASODILATOR ACTIVITY” value in the data set on femoral artery was “+++”. Moreover, the “ANTISPASMODIC ACTIVITY ACHOL (dose causing complete spasm inhibition)” value in data set [4] is 16.7 μg per ml. The “ANTISPASMODIC ACTIVITY HIST. (dose causing complete spasm inhibition)” value in data set [5] came to 8.3 μg per ml.
Consider `Cc1ccccc1N1CCN(C(C)C(O)c2ccc3c(c2)CCC(C)S3)CC1` (centres unmarked) [No 10], for which the LD50 in data set [1] is over 4000 mg/kg. Besides, in data set [2], the “ANTIHYPERTENSIVE ACTIVITY” value was “+++ (reduction higher than 20 mm Hg)”. Further, in data set [3], the “ANTISPASMODIC ACTIVITY BaCl2 (dose causing complete spasm inhibition)” value stood at 8.3 μg per ml. Further, in the data set on femoral artery, the “VASODILATOR ACTIVITY” value is reported as “++”. The “ANTISPASMODIC ACTIVITY ACHOL (dose causing complete spasm inhibition)” value in data set [4] is reported as 16.7 μg per ml. Further, the “ANTISPASMODIC ACTIVITY HIST. (dose causing complete spasm inhibition)” value in data set [5] was 0.33 μg per ml.
Regarding `Cc1ccccc1N1CCN(C(C)C(O)c2ccc3c(c2)CCCS3)CC1` (centres unmarked) [No 15], the “ANTIHYPERTENSIVE ACTIVITY” value in data set [2] was “+++ (reduction higher than 20 mm Hg)”. Also, the “ANTISPASMODIC ACTIVITY BaCl2 (dose causing complete spasm inhibition)” value in data set [3] is over 16.7 μg per ml. Also, in the data set with femoral artery, the “VASODILATOR ACTIVITY” value is given as “+++”. The “ANTISPASMODIC ACTIVITY ACHOL (dose causing complete spasm inhibition)” value in data set [4] turned out to be 3.3 μg per ml. Also, in data set [5], the “ANTISPASMODIC ACTIVITY HIST. (dose causing complete spasm inhibition)” value was 0.8 μg per ml.
As to `CC(NCCC(c1ccccc1)c1ccccc1)C(O)c1ccc2c(c1)CCCS2` (centres unmarked) [No 16], the median lethal dose (LD50) in data set [1] was over 4000 mg/kg. Besides, the “ANTIHYPERTENSIVE ACTIVITY” value in data set [2] is “++ (reduction of 10 to 20 mm Hg)”. The “ANTISPASMODIC ACTIVITY BaCl2 (dose causing complete spasm inhibition)” value in data set [3] came to 0.33 μg per ml. In addition, in the data set on femoral artery, the “VASODILATOR ACTIVITY” value is reported as “+++”. The “ANTISPASMODIC ACTIVITY ACHOL (dose causing complete spasm inhibition)” value in data set [4] was determined as 0.8 μg per ml. The “ANTISPASMODIC ACTIVITY HIST. (dose causing complete spasm inhibition)” value in data set [5] stood at 0.3 μg per ml.
Regarding `CC(NCCCc1ccccc1)C(O)c1ccc2c(c1)CCCS2` (centres unmarked) [No 17], in data set [1], the median lethal dose (LD50) is over 4000 mg/kg. The “ANTIHYPERTENSIVE ACTIVITY” value in data set [2] is given as “+++ (reduction higher than 20 mm Hg)”. Besides, in data set [3], the “ANTISPASMODIC ACTIVITY BaCl2 (dose causing complete spasm inhibition)” value came to 1.7 μg per ml. Also, the “VASODILATOR ACTIVITY” value in the data set on femoral artery is recorded as “+++”. Besides, the “ANTISPASMODIC ACTIVITY ACHOL (dose causing complete spasm inhibition)” value in data set [4] is listed as 1.7 μg per ml. Moreover, the “ANTISPASMODIC ACTIVITY HIST. (dose causing complete spasm inhibition)” value in data set [5] is reported as 0.8 μg per ml.
Take `CC1Cc2cc(C(O)C(C)NCCCCc3ccccc3)ccc2S1` (centres unmarked) [No 19]: the median lethal dose (LD50) in data set [1] was 1550 mg/kg. Further, in data set [2], the “ANTIHYPERTENSIVE ACTIVITY” value is “+++ (reduction higher than 20 mm Hg)”. Further, the “ANTISPASMODIC ACTIVITY BaCl2 (dose causing complete spasm inhibition)” value in data set [3] came out at 0.8 μg per ml. Besides, in the data set with femoral artery, the “VASODILATOR ACTIVITY” value is listed as “+++”. In data set [4], the “ANTISPASMODIC ACTIVITY ACHOL (dose causing complete spasm inhibition)” value is on record as 1.7 μg per ml. In addition, the “ANTISPASMODIC ACTIVITY HIST. (dose causing complete spasm inhibition)” value in data set [5] was 0.8 μg per ml.
